Data: ChEMBL document CHEMBL5214933, “Discovery of Selenium-Containing STING Agonists as Orally Available Antitumor Agents” (J Med Chem, 2022)
≈ marks a conversion by molar mass, not a printed value. Calls of active or inactive are those of the source. The calls are words filed in the database; no cut-off is given here.

Legend:
[1] = Stability in rat plasma assessed as interconversion into (S)-4-(5,6-Dimethoxybenzo[b]selenophen-2-yl)-2-ethyl-4-oxobutanoic acid incubated for 24 hrs by normal-phase HPLC analysis; assay type: ADME, cell-free
[2] = target: T1, Stimulator of interferon genes protein (Homo sapiens, UniProt Q86WV6); test: Agonist activity at STING in human THP-1 cells harboring IRF-inducible luciferase reporter construct assessed as increase in IRF3 phosphorylation at 50 uM measured after 3 hrs by Western blot analysis; assay type: cell-based; conditions: filed as agonist
[3] = Protein binding in plasma (unknown origin) assessed as unbound fraction at 2 uM incubated for 4 hrs under shaking condition by rapid equilibrium dialysis method; assay type: ADME, cell-free
[4] = target: T1, Stimulator of interferon genes protein; test: Agonist activity at STING in human THP-1 cells harboring IRF-inducible luciferase reporter construct assessed as increase in IRF3 phosphorylation measured after 3 hrs by Western blot analysis; assay type: cell-based; conditions: filed as agonist, dose 10-50 µM, DDE = dose-dependent effect
MC-38 [5] = test: In vivo activation of STING in naive […] mouse implanted with mouse MC38 cells assessed as increase in IFN-gamma level in plasma at 30 mg/kg, po administered as single dose and measured after 4 hrs by ELISA; assay type: functional, organism-based
Mus musculus [6] = test: Immunostimulatory activity in naive […] mouse implanted with mouse MC38 cells assessed as increase in NK cells in spleen at 30 mg/kg, po by FACS analysis; assay type: functional, organism-based; conditions: MC-38
[7] = Half life in Sprague-Dawley rat at 50 mg/kg, po measured for 1440 mins by LC-MS/MS analysis; assay type: ADME, organism-based; conditions: in vivo
[8] = target: T2, Stimulator of interferon genes protein (Mus musculus) (UniProt Q3TBT3); test: Agonist activity at STING in mouse MEF cells assessed as increase in IL6 mRNA expression at 10 uM measured after 3 hrs by qRT-PCR analysis; assay type: cell-based; conditions: filed as agonist
T2 sequence (whole entry): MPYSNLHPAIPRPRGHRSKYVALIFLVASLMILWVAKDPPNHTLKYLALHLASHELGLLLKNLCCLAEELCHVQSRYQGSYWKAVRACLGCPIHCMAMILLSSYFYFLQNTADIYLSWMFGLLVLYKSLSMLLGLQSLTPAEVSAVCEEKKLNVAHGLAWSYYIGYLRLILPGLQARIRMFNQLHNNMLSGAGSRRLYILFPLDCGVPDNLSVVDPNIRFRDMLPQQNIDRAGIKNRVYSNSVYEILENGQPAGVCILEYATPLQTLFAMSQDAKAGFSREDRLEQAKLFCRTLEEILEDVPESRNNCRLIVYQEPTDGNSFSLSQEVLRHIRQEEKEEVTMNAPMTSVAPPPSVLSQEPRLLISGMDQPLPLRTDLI

[9] = target: T1, Stimulator of interferon genes protein; test: Agonist activity at STING in human THP-1 cells harboring IRF-inducible luciferase reporter construct assessed as increase in TBK1 phosphorylation measured after 3 hrs by Western blot analysis; assay type: cell-based; conditions: filed as agonist, dose 10-50 µM, DDE = dose-dependent effect
[10] = AUC (0 to infinity) in Sprague-Dawley rat at 5 mg/kg, iv measured for 1440 mins by LC-MS/MS analysis; assay type: ADME, organism-based; set-up: dose 5 mg/kg, time 1440 min, route iv; conditions: in vivo
[11] = target: T1, Stimulator of interferon genes protein; test: Agonist activity at STING in human THP-1 cells assessed as increase in IL6 mRNA expression at 10 uM measured after 3 hrs by qRT-PCR analysis; assay type: cell-based; conditions: filed as agonist
CYP3A4 = CYP3A4 (Homo sapiens, UniProt P08684); test: Inhibition of recombinant CYP3A4 (unknown origin) using midazolam as substrate assessed as reduction in substrate hydroxylation at 10 uM incubated for 5 mins in presence of NADPH by LC-MS/MS analysis relative to control; assay type: ADME; conditions: recombinant CYP3A4, probe midazolam
4T1 [12] = test: Antitumor activity against mouse 4T1 cells implanted in naive BALB/c mouse assessed as increase in Ki67-positive CD8 T cells in tumor at 20 mg/kg, po administered once every 5 days by FACS analysis (reference value: 14%); assay type: functional; conditions: time 5 day
MC-38 [13] = test: Antitumor activity against mouse MC38 cells implanted in C57BL/6 mouse assessed as tumor growth regression at 30 mg/kg, po administered once every 3 days and measured after 21 days by digital caliper analysis relative to control; assay type: functional; conditions: time 21 day
[14] = Toxicity in naive BALB/c mouse implanted with mouse 4T1-Luc cells assessed as reduction in body weight at 20 mg/kg, po measured after 15 days; assay type: organism-based; conditions: in vivo, 360 h, time 15 day
CT26 = test: Antitumor activity against mouse CT26 cells implanted in naive BALB/c mouse assessed as tumor growth regression at 20 mg/kg, po administered once every 5 days and measured after 30 days by digital caliper analysis relative to control; assay type: functional; conditions: time 30 day
[15] = target: T3, Stimulator of interferon genes protein (Mus musculus, UniProt Q3TBT3); test: Agonist activity at STING in mouse RAW264.7 cells harboring IRF-inducible luciferase reporter construct assessed as increase in relative fluorescence unit incubated for 12 hrs by Quanti-luc reagent based assay; assay type: cell-based
T3 sequence (Q3TBT3 whole entry): T2 sequence (whole entry)

4T1 [16] = test: Antitumor activity against mouse 4T1 cells implanted in naive BALB/c mouse assessed as tumor growth inhibition at 20 mg/kg, po administered once every 5 days and measured every 3 days by digital caliper analysis; assay type: functional, organism-based; conditions: time 5.0 day
[17] = tested on: Stimulator of interferon genes protein (Homo sapiens), Q86WV6 [UNDEFINED MUTATION]; test: Binding affinity to recombinant human STING R232 variant expressed in Escherichia coli BL21 (DE3) assessed as thermal stabilization by measuring change in melting temperature at 0.1 mM incubated for 30 mins by SYPRO orange dye based differential scanning fluorimetry assay
[18] = target: T1, Stimulator of interferon genes protein; test: Agonist activity at STING in human THP-1 cells assessed as increase in IFNbeta mRNA expression at 10 uM measured after 3 hrs by qRT-PCR analysis; assay type: cell-based; conditions: filed as agonist
[19] = Solubility of compound in PBS buffer at pH 7.4 at 3 mg incubated for 24 hrs under shaking condition by RP-HPLC analysis; assay type: physicochemical
[20] = Clearance in Sprague-Dawley rat at 5 mg/kg, iv measured for 1440 mins by LC-MS/MS analysis; assay type: ADME, organism-based; conditions: in vivo
Mus musculus [21] = test: Immunostimulatory activity in naive […] mouse implanted with mouse MC38 cells assessed as increase in CD69-positive NK cells in spleen at 30 mg/kg, po by FACS analysis (reference value: 4.7%); assay type: functional, MC-38
[22] = Toxicity in immunocompetent BALB/c mouse assessed as reduction in body weight at 30 mg/kg, po measured after 3 days; assay type: organism-based; conditions: in vivo, 72 h, time 3 day
4T1-Luc = test: Antitumor activity against mouse 4T1-Luc cells implanted in naive BALB/c mouse assessed as tumor growth inhibition at 20 mg/kg, po administered once every 5 days and measured after 15 days by digital caliper analysis; assay type: functional, organism-based; conditions: time 15.0 day
MC-38 [23] = test: In vivo activation of STING in naive […] mouse implanted with mouse MC38 cells assessed as increase in IL-6 level in plasma at 30 mg/kg, po administered as single dose and measured after 4 hrs by ELISA; assay type: functional, organism-based
Mus musculus [24] = test: Immunostimulatory activity in naive […] mouse implanted with mouse MC38 cells assessed as increase in CD8 T cells in spleen at 30 mg/kg, po by FACS analysis; assay type: functional, organism-based; conditions: MC-38

T1 sequence (Q86WV6 whole entry): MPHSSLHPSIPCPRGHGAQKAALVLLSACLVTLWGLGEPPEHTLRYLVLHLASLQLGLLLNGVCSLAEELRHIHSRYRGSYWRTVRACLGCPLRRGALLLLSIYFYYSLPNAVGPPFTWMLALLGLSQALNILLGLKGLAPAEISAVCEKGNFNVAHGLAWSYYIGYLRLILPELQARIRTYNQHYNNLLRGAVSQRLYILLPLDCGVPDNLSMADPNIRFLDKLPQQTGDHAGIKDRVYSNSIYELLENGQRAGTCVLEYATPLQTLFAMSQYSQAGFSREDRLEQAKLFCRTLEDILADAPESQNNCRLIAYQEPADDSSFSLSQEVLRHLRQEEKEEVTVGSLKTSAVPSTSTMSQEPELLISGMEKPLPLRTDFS
Chain of CYP3A4 (P08684 whole entry): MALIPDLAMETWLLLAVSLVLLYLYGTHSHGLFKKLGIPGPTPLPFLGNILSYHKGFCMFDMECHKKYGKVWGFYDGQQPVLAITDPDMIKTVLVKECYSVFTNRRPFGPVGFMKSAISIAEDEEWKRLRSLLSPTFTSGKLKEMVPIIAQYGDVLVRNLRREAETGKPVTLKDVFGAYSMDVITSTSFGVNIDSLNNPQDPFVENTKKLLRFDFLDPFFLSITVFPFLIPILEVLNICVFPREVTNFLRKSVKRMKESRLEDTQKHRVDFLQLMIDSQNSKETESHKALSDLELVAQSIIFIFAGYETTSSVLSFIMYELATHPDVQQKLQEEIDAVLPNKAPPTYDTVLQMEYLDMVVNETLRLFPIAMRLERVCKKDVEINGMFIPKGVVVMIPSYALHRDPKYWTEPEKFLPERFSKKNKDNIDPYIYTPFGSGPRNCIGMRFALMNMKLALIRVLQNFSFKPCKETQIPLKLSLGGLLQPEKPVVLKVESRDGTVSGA
Chain of Stimulator of interferon genes protein (Homo sapiens), Q86WV6 [UNDEFINED MUTATION] (Q86WV6 whole entry, looked up, stated change not applied): as the sequence (Q86WV6 whole entry) above

CC[C@H](CC(=O)c1cc2cc(OC)c(OC)cc2[se]1)C(=O)O
Stability [1]: Stable | Activity [2]: Active | Fu [3]: 0.07% | Activity [4]: Dde | Activity (MC-38 [5]): Active | Activity (Mus musculus [6]): Active | half-life [7]: 1.6 h | Activity [8]: Active | Activity [9]: Dde | AUC(0-inf) [10]: 29400 ng·h/mL | Activity [11]: Active | inhibition at 5 min, 10 µM (CYP3A4): 13.5% | Activity (4T1 [12]): 25.2% | Activity (MC-38 [13]): 100% | Activity [14]: Non-Toxic | Activity (CT26): 100% | EC50 [15]: 5.71 µM | Activity (4T1 [16]): Active | ΔTm [17]: 18.1 °C | Activity [18]: Active | solubility thermodynamic at 24 h [19]: 1200 µg/mL (≈ 3.25 mM) | clearance [20]: 2.83 mL/min/kg | Activity (Mus musculus [21]): 46.8% | Activity [22]: Non-Toxic | Activity (4T1-Luc): Active | Activity (MC-38 [23]): Active | Activity (Mus musculus [24]): Active
